One data set concerns HCMV. Briefly: HCMV yield reduction assay in HFF cells. It is filed as cell-based, Human CMV (HCMV). Particulars: footnote says IC90. How it is done: (§1) Virological procedures. Stock HCMV was prepared by infecting HFF cells at a multiplicity of infection (m.o.i.) of <0.01 plaque-forming units (p.f.u.) per cell. Cell growth medium was changed every four days until cytopathology was evident in all cells (approximately 21 days). Supernatant fluids were retained as the virus stock. High titer HSV-1 stocks were prepared by infecting KB cells at an m.o.i. of <0.1 as detailed previously. Turk, S. R., et al., Antimicrob. Agents Chemother. 31:544-550 (1987). Virus titers were determined using monolayer cultures of HFF cells for HCMV and monolayer cultures of BSC-1 cells for HSV-1 as described earlier. Prichard, M. N., et al., J. Virol. Methods 28:101-106 (1990). Briefly, HFF or BSC-1 cells were planted as described above in 96-well cluster dishes and incubated overnight at 37° C. in a humidified 3% CO297% air atmosphere. The next day cultures were inoculated with HCMV or HSV-1 and serially diluted 1:3 across the remaining eleven columns of the 96-well plate. Cultures were incubated at 37° C. for 2 hr to permit virus adsorption and then virus inoculum was replaced with 0.2 mL of fresh medium. Cultures were incubated for seven days for HCMV, two or three days for HSV-1, medium was removed, and the cell sheets were stained with 0.1% crystal violet in 20% methanol. Plaques were enumerated under 20-fold magnification in wells having the dilution which gave 5 to 20 plaques per well. Virus titers were calculated according to the following Formula: Titer (p.f.u./mL)=number of plaques×5×3^n; where n represents the nth dilution of the virus used to infect the well in which plaques were enumerated.
The effect of compounds on the replication of HCMV also was measured using a yield reduction assay. HFF cells were planted as described above in 96-well cluster dishes, incubated overnight, medium removed and the cultures were inoculated with HCMV at a m.o.i. of 0.5 to 1 p.f.u. per cell as reported elsewhere. After virus adsorption, inoculum was replaced with 0.2 mL of fresh medium containing test compounds. The first row of 12 wells was left undisturbed and served as virus controls. Each well in the second row received an additional 0.1 mL of medium with test compound at three times the desired final concentration. The contents of the 12 wells were mixed by repeated pipetting and then serially diluted 1:3 along the remaining wells. In this manner, six compounds could be tested in duplicate on a single plate with concentrations from 100 μM to 0.14 μM. Plates were incubated at 37° C. for seven days, subjected to one cycle of freezing and thawing; aliquots from each of the eight wells of a given column were transferred to the first column of a fresh 96-well monolayer culture of HFF cells. Contents were mixed and serially diluted 1:3 across the remaining eleven columns of the secondary plate. Each column of the original primary plate was diluted across a separate plate in this manner. Cultures were incubated, plaques were enumerated, and titers calculated as described above.
(§2) Data Analysis. Dose-response relationships were constructed by linearly regressing the percent inhibition of parameters derived in the preceding sections against log drug concentrations. Fifty-percent inhibitory (IC50) concentrations were calculated from the regression lines. Samples containing positive controls (acyclovir for HSV-1, ganciclovir for HCMV, and 2-acetylpyridine thiosemicarbazone for cytotoxicity) were used in all assays.

The next data set deals with HSV-1. Briefly: HSV-1 ELISA in BSC-1 cells. Format: cell-based, herpes simplex 1 (HSV-1). Particulars: BSC-1 cells; ELISA. How it is done: as §1
(b) HSV-1. An enzyme-linked immunosorbent assay (ELISA) was employed to detect HSV-1. 96-well cluster dishes were planted with BSC-1 cells at 10,000 cells per well, in a total volume of 200 μL per well of MEM(E) plus 10% calf serum. After overnight incubation at 37° C., drug and HSV-1 was added at the rate of 100 PFU/well. ELISA plates were blocked with 200 μL per well of 10% calf serum and 0.05% tween in HBS. After incubation for 30 minutes, the blocking agent was rinsed two times with HBS-T. A 1:400 dilution of AP conjugated rabbit anti-HSV-1 antibody in HBS-F was added. Plates were sealed with adhesive sheet, and incubated on rocker for one hour at 37° C. Plates were developed in the dark with 100 μL per well of substrate solution containing p-nitrophenyl phosphate. Plates were read at […]. Drug effects were calculated as a percentage of the reduction in virus in the presence of each drug concentration compared to the titer obtained in the absence of drug. Acyclovir was used as a positive control in all experiments.
as §2
On the technique in general: ELISA stands for enzyme-linked immunosorbent assay.

A further data set concerns HFF cells. Briefly: Cytotoxicity in stationary HFF cells, microscopic inspection. It is filed as cell-based, human. How it is done: (§3) Cells and viruses. The routine growth and passage of KB cells was performed in monolayer cultures using minimal essential medium (MEM) with either Hanks salts [MEM(H)] or Earle salts [MEM(E)] supplemented with 10% calf serum. The sodium bicarbonate concentration was varied to meet the buffering capacity required. Cultures of diploid human foreskin fibroblasts (HFF) or MRC-5 cells were grown in medium consisting of MEM(E) with 10% fetal bovine serum. Cells were passaged at 1:2 to 1:10 dilutions according to conventional procedures by using 0.05% trypsin plus 0.02% EDTA in a HEPES buffered salt solution (HBS) (Shipman, C., Jr., Proc. Soc. Exp. Biol. 130:305-310 (1969)) as described previously. Turk, S. R., et al., Antimicrob. Agents Chemother. 31:544-550 (1987). HFF and MRC-5 cells were passaged only at 1:2 dilutions. CEM cells were maintained in suspension culture as detailed previously. Kucera, L. S., et al., AIDS Res. Human Retroviruses 9:307-314 (1993).
(§4) Cytotoxicity assays. Two different assays were used to explore cytotoxicity of selected compounds as we have detailed previously. (i) Cytotoxicity produced in stationary HFF cells and in growing CEM cells was determined by microscopic inspection of cells used in plaque and RT assays which were not affected by the virus. Turk, S. R., et al., Antimicrob. Agents Chemother. 31:544-550 (1987). (ii) The effect of compounds during two population doublings of KB cells was determined by crystal violet staining and spectrophotometric quantitation of dye eluted from stained cells. Prichard, M. N., et al., Antimicrob. Agents Chemother. 35:1060-1065 (1991).
as §2

The subject of the next data set is KB cells. In words: Cytotoxicity in KB cells, growth over two population doublings. Format: cell-based. How it is done: as §3, §4, §2
The test system of a further data set is CEM cells. In words: Cytotoxicity in growing CEM cells, microscopic inspection. Format: cell-based. How it is done:
as §3, §4, §2

The nature of data set [1]: Toxicity controls: uninfected mice given test compound. Format: in vivo. Particulars: 5.6, 16.7 and 50 mg/kg i.p. once daily for five days. How it is done: Compounds 1 (B=adenin-N^9-yl and guanin-N^9-yl) were evaluated in mice infected with murine cytomegalovirus (MCMV). Mice were infected intraperitonealy with sufficient MCMV to produce 90 to 100% mortality. Compounds were administered once daily for five days at doses of 5.6, 16.7 and 50 mg/kg by intraperitoneal injection in a 0.4% suspension of carboxymethylcellulose. Ganciclovir was administered in sterile water at the same doses as a positive control drug. All compounds were administered to separate groups of 15 mice each at 6, 24, and 48 hours after infection with MCMV. Groups of 10 uninfected mice also received test compounds as toxicity controls at the doses listed above.

As a reminder, the IC90 is the concentration needed for an effect of 90%. A low value points to an effect from little substance. For orientation: pIC50 means −log10 of the IC50, conventionally taken in molar units.

pIC50: −log10 of the molar value.

`Nc1ncnc2c1ncn2C=C1CC1CO` (stereo not drawn) [1 (B = adenine), Example 5, syn-N^9-(2-hydroxymethylcyclopropylidenemethyl)adenine] had an IC90 in the data set with HCMV of 1.5 µM. Further, the pIC50 is 5.43 with HSV-1, less than 4.00 in the data set on HFF cells, 4.09 in the data set on KB cells and less than 4.00 with CEM cells. In addition, in data set [1], the “deaths in uninfected mice that received only drug” value is “No deaths were observed”.

The values above are taken from US6958345B2, “2-hydroxymethylcyclopropylidene methylpurines and -pyrimidines as antiviral agents” (The Regents of the University of Michigan, priority 1997, dated 2005).
